In ChEMBL document CHEMBL1129762, “Synthesis and antibacterial activity of 4- and 8-methoxy trinems” (1996):

What was measured:
Format in all cases: functional
[1] = system: Clostridium perfringens; experiment: In vitro antibacterial activity against Clostridium perfringens 615E
[2] = system: Staphylococcus aureus; experiment: In vitro antibacterial activity against Staphylococcus aureus 853.
[3] = system: Escherichia coli; experiment: In vitro antibacterial activity against Escherichia coli 1850
[4] = system: Escherichia coli; experiment: In vitro antibacterial activity against Escherichia coli 1919
[5] = system: Enterococcus faecalis; experiment: In vitro antibacterial activity against Enterococcus faecalis 850.
[6] = system: Staphylococcus aureus; experiment: In vitro antibacterial activity against Staphylococcus aureus 663E.

| Structure (SMILES) | MIC [1] | MIC [2] | MIC [3] | MIC [4] | MIC [5] | MIC [6] |
| --- | --- | --- | --- | --- | --- | --- |
| CO[C@H]1CCC[C@@H]2C1=C(C(=O)[O-])N1C(=O)[C@H]([C@@H](C)O)C21.[K+] (some centres not stated) | 4000 µg/mL | 1 µg/mL | 32 µg/mL | 16 µg/mL | 32 µg/mL | 2 µg/mL |
| CO[C@@H]1CCC[C@H]2C1=C(C(=O)[O-])N1C(=O)[C@H]([C@@H](C)O)C21.[K+] (some centres not stated) | 120 µg/mL | 0.5 µg/mL | 1 µg/mL | 4 µg/mL | 8 µg/mL | 0.5 µg/mL |
| CO[C@]12CCCCC1=C(C(=O)[O-])N1C(=O)[C@H]([C@@H](C)O)[C@H]12.[K+] | 2000 µg/mL | 8 µg/mL | 32 µg/mL | 8 µg/mL | 32 µg/mL | 4 µg/mL |
| CO[C@@]12CCCCC1=C(C(=O)[O-])N1C(=O)[C@H]([C@@H](C)O)[C@H]12.[K+] | 2000 µg/mL | 4 µg/mL | 8 µg/mL | 4 µg/mL | 16 µg/mL | 4 µg/mL |
| C[C@@H](O)[C@H]1C(=O)N2C(C(=O)O)=C(SCCNC=N)C[C@H]12.O [IMIPENEM] | 30 µg/mL | 0.1 µg/mL | 0.5 µg/mL | 0.5 µg/mL | 2 µg/mL | 0.12 µg/mL |
| CO[C@H]1CCC[C@H]2C1=C(C(=O)[O-])N1C(=O)[C@H]([C@@H](C)O)C21.[K+] (some centres not stated) | 30 µg/mL | 0.25 µg/mL | 0.5 µg/mL | 0.5 µg/mL | 1 µg/mL | 0.25 µg/mL |
| CO[C@@H]1CCC[C@@H]2C1=C(C(=O)[O-])N1C(=O)[C@H]([C@@H](C)O)C21.[K+] (some centres not stated) | 1000 µg/mL | 2 µg/mL | 16 µg/mL | 16 µg/mL | 32 µg/mL | 2 µg/mL |
